In US20260191835A1, “COMBINATIONS COMPRISING A MENIN-MLL INHIBITOR AND AT LEAST ONE OTHER THERAPEUTIC AGENT” (JANSSEN PHARMACEUTICA NV, priority 2022, published 2026):

Key:
MEIS1 mRNA expression = MEIS1 mRNA expression assay (Quantigene Singleplex) in MOLM14; type: cell-based; details: Homo sapiens, MOLM-14, 48 h, MOLM14 cells, 48 hours with compound
Protocol: 2b) MEIS1 mRNA Expression Assay
MEIS1 mRNA expression upon treatment of compound was examined by Quantigene Singleplex assay (Thermo Fisher Scientific). This technology allows for direct quantification of mRNA targets using probes hybridizing to defined target sequences of interest and the signal is detected using a Multimode plate reader Envision (PerkinElmer). The MOLM14 cell line was used for this experiment. Cells were plated in 96-well plates at 3,750 cells/well in the presence of increasing concentrations of compounds. After incubation of 48 hours with compounds, cells were lysed in lysis buffer and incubated for 45 minutes at 55° C. Cell lysates were mixed with human MEIS1 specific capture probe or human RPL28 (Ribosomal Protein L28) specific probe as a normalization control, as well as blocking probes. Cell lysates were then transferred to the custom assay hybridization plate (Thermo Fisher Scientific) and incubated for 18 to 22 hours at 55° C. Subsequently, plates were washed to remove unbound materials followed by sequential addition of preamplifiers, amplifiers, and label probe. Signals (=gene counts) were measured with a Multimode plate reader Envision. IC50s were calculated by dose-response modelling using appropriate software. For all non-housekeeper genes response equal counts corrected for background and relative expression. For each sample, each test gene signal (background subtracted) was divided by the normalization gene signal (RPL28: background subtracted). Fold changes were calculated by dividing the normalized values for the treated samples by the normalized values for the DMSO treated sample. Fold changes of each target gene were used for the calculation of IC50s.

MOLM14 cells = assay: Proliferation assay (spheroid assay), MOLM14; type: cell-based; details: Homo sapiens, MOLM-14, 192 h, 8 days; read-out: spheroid assay_MOLM14 IC50
Protocol: The anti-proliferative effect of menin/MLL protein/protein interaction inhibitor test compounds was assessed in human leukemia cell lines. The cell line MOLM14 harbors a MLL translocation and expresses the MLL fusion protein MLL-AF9, respectively, as well as the wildtype protein from the second allele. OCI-AML3 cells that carry the NPM1c gene mutation were also tested. […] KO-52 was used as a control cell line containing two MLL (KMT2A) wildtype alleles in order to exclude compounds that display general cytotoxic effects.
MOLM14 cells were cultured in RPMI-1640 (Sigma Aldrich) supplemented with 10% heat-inactivated fetal bovine serum (HyClone), 2 mM L-glutamine (Sigma Aldrich) and 50 μg/ml gentamycin (Gibco). KO-52 and OCI-AML3 cell lines were propagated in alpha-MEM (Sigma Aldrich) supplemented with 20% heat-inactivated fetal bovine serum (HyClone), 2 mM L-glutamine (Sigma Aldrich) and 50 µg/ml gentamycin (Gibco).
In order to assess the anti-proliferative effects, 200 MOLM14 cells, […] or 300 KO-52 cells were seeded in 200 μl media per well in 96-well round bottom, ultra-low attachment plates (Costar, catalogue number 7007). Cell seeding numbers were chosen based on growth curves to ensure linear growth throughout the experiment. Test compounds were added at different concentrations and the DMSO content was normalized to 0.3%. Cells were incubated for 8 days at 37° C. and 5% CO2. Spheroid like growth was measured in real-time by live-cell imaging (IncuCyteZOOM, Essenbio, 4× objective) acquiring images at day 8. Confluence (%) as a measure of spheroid size was determined using an integrated analysis tool.
In order to determine the effect of the test compounds over time, the confluence in each well as a measure of spheroid size, was calculated. Confluence of the highest dose of a reference compound was used as baseline for the LC (Low control) and the confluence of DMSO treated cells was used as 0% cytotoxicity (High Control, HC).
Absolute IC50 values were calculated as percent change in confluence as follows: • LC=Low Control: cells treated with e.g. […] of the cytotoxic agent staurosporin, or e.g. cells treated with a high concentration of an alternative reference compound • HC=High Control: Mean confluence (%) (DMSO treated cells)
GraphPad Prism (version 7.00) was used to calculate the IC50. Dose-response equation was used for the plot of % Effect vs Log 10 compound concentration with a variable slope and fixing the maximum to 100% and the minimum to 0%.

[1] = biological target: T1, Menin/MLL (terbium chelate-labeled menin, FITC-MBM1 peptide) (Homo sapiens, UniProt O00255, T541A); assay: Menin/MLL homogenous time-resolved fluorescence (HTRF) assay; type: binding; details: 30 min incubation of test compound with terbium chelate-labeled menin
T1 construct: Menin (a.a 1-610-6×his tag)
T1 sequence (O00255 with tags, fused parts or gaps T541A): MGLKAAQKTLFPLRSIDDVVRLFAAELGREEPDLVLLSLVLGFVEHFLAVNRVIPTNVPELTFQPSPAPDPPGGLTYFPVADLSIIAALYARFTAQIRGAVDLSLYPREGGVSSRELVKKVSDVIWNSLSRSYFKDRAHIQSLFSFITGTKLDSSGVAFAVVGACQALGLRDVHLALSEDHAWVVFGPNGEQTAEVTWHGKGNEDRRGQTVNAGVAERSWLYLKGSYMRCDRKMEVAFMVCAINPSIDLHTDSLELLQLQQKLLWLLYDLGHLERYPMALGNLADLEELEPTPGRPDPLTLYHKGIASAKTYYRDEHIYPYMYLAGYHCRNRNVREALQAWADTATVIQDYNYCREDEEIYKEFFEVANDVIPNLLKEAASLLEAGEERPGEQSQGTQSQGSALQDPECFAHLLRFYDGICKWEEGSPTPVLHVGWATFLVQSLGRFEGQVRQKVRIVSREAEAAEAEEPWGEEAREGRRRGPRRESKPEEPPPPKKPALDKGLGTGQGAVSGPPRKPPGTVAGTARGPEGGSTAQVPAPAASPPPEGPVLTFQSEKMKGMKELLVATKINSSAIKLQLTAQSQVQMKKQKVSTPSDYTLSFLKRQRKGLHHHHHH
Protocol: 1) Menin/MLL Homogenous Time-Resolved Fluorescence (HTRF) Assay
To an untreated, white 384-well microtiter plate was added 40 nL 200× test compound in DMSO and 4 μL 2× terbium chelate-labeled menin (vide infra for preparation) in assay buffer (40 mM Tris·HCl, pH 7.5, 50 mM NaCl, 1 mM DTT (dithiothreitol) and 0.05% Pluronic F-127). After incubation of test compound and terbium chelate-labeled menin for 30 min at ambient temperature, 4 μL 2×FITC-MBM1 peptide (FITC-O-alanine-[…]-NH2) (“FITC” means fluorescein isothiocyanate) in assay buffer was added, the microtiter plate centrifuged at 1000 rpm for 1 min and the assay mixtures incubated for 15 min at ambient temperature. The relative amount of menin-FITC-MBM1 complex present in an assay mixture is determined by measuring the homogenous time-resolved fluorescence (HTRF) of the terbium/FITC donor/acceptor fluorphore pair using an EnVision microplate reader (ex. 337 nm/terbium em. 490 nm/FITC em. 520 nm) at ambient temperature. The degree of fluorescence resonance energy transfer (the HTRF value) is expressed as the ratio of the fluorescence emission intensities of the FITC and terbium fluorophores (F^em 520 nm/F^em 490 nm). […]
Compound potencies were determined by first calculating % inhibition at each compound concentration according to equation 1: […]

[2] = Dynamic vapor sorption (DVS) moisture sorption analysis; type: physicochemical
Protocol: Dynamic Vapor Sorption (DVS) The moisture sorption analysis (DVS) was performed using a ProUmid GmbH & Co. KG Vsorp Enhanced dynamic vapor sorption apparatus. The moisture profile was evaluated by monitoring vapor adsorption/desorption over the range of 0 to 90% relative humidity at 25° C. The sample weight equilibrium criteria were set at 0.01% change in 45 min with minimum and maximum time of acclimation at 50 min and 120 min, respectively. The moisture profile consisted of 2 cycles of vapor adsorption/desorption.

[3] = common ambient RH of 40% to 75%

| SMILES | IC50 (MEIS1 mRNA expression) [nM] | IC50 (MOLM14 cells) [nM] | further results |
| --- | --- | --- | --- |
| CNC(=O)N1CCC(CN2CC[C@H](Cc3cn(-c4ccc(F)cc4C(=O)N(C)C(C)C)c4cncc(C)c34)C2)CC1 (single isomer, unassigned) [Compound 101] | 7 | 41 |  |
| COCC(=O)N1CCC(C(C)N2CCC(Cc3cn(-c4ccc(F)cc4C(=O)N(C)C(C)C)c4cncc(C)c34)C2)CC1 (single isomer, unassigned) [Compound 117a] | 7 | 5 |  |
| CC(=O)N1CC[C@@H](N2CC(Cc3cn(-c4ccc(F)cc4C(=O)N(C)C(C)C)c4cncc(C)c34)C2)C[C@H]1C (single isomer, unassigned) [Compound 292a] |  |  | IC50 [1]: 0.132 nM |
| CC(=O)N1C[C@H]2CC(N3CC(Cc4cn(-c5ccc(F)cc5C(=O)N(C)C(C)C)c5cncc(C)c45)C3)C[C@H]2C1 (single isomer, unassigned) [Compound 294a] | 365 |  | IC50 [1]: 0.237 nM |
| CC(=O)N1CCC(CN2CC[C@@H](Cc3cn(-c4ccc(F)cc4C(=O)N(C)C(C)C)c4cncc(C)c34)C2)CC1.Cl [Compound 51a] |  |  | solid-state form stability after the DVS test (XRPD) ([2]; 2 cycles of vapor adsorption/desorption): No indication of a solid-state form change was observed; total moisture mass at equilibrium [2, 3]: 8.5-9.5%; water content at equilibrium [2, 3]: around 3 equivalents of water; hygroscopicity (DVS change in mass) ([2]; crystalline HCl salt Form, 0 to 90% relative humidity at 25° C.): hygroscopic; moisture adsorbed and desorbed, by mass on average ([2]; humidity range of 20-90% RH, 25° C., slowly and reversibly): up to 2.5% |
| CC(=O)N1CCC(N2CC[C@H](Cc3cn(-c4ccc(F)cc4C(=O)N(C)C(C)C)c4cncc(C)c34)C2)CC1 [Compound 156] | 187 | 42 |  |
| Cc1cncc2c1c(CC1CN(CC3CCNC(=O)C3)C1)cn2-c1ccc(F)cc1C(=O)N(C)C(C)C (stereo not shown) [Compound 196] | 438 |  |  |
| CC(=O)N1CC2CC(N3CC(Cc4cn(-c5ccc(F)cc5C(=O)N(C)C(C)C)c5cncc(C)c45)C3)CC2C1 (stereo not shown) [Compound 294b] | 153 |  |  |
